Laboratory results published in patent US20210052633A1, “HYALURONIC ACID SYNTHESIS PROMOTER, METHOD FOR PROMOTING HYALURONIC ACID SYNTHESIS, AND CELL EVALUATION METHOD” (SEIKAGAKU CORPORATION, priority 2018, published 2021).

Legend:
[1] = system: Human synovial cells derived from a patient with rheumatism (HFLS-RA); test: Hyaluronic acid synthesis by synovial cells ([3H] glucosamine incorporation, HPLC fractionation by molecular weight); assay type: cell-based
Protocol: Compound 1 or sodium hyaluronate (HA) (ARTZ Dispo (registered trademark) (manufactured by Seikagaku Corporation)) was mixed in a solution containing a phosphate buffer solution (GIBCO) and an α-MEM (GIBCO) concentrated medium. Further, each reagent was added and mixed in the resulting solution so that the final concentrations were as follows: 10% (v/v) fetal bovine serum (hereinafter FBS (MP Biomedicals)), 10 ng/mL recombinant human IL-1β/IL-1F2 (hereinafter IL-1β (R & D Systems)), 1% (w/v) penicillin/streptomycin (GIBCO), and 370 kBq/mL [^3H] glucosamine (Perkin Elmer). As a result, the following five solutions were obtained as test substances.
Human synovial cells derived from a patient with rheumatism (HFLS-RA, CELL APPLICATIONS, INC.) were subcultured and grown in a 175-cm^2 flask. In the cell culture, Basal medium (containing 10% (v/v) Growth supplement and 1% (w/v) penicillin/streptomycin) (manufactured by Cell Applications, Inc.) was used. Thereafter, the cells were seeded in a 6-well plate at 3.0×10^5 cells/2 mL/well and cultured for about 24 hours until confluence was reached. In the cell culture, α-MEM medium (containing 10% (v/v) FBS and 1% (w/v) penicillin/streptomycin) was used. After removing the culture supernatant, 2 mL of the test substance was added to the cells, and the cells were further cultured for 48 hours. The culture was performed at 37° C. in a CO2 incubator (5% (v/v) CO2). After completion of the culture, the culture supernatant was collected and cryopreserved in an ultra-low temperature freezer until measurement.
Since glucosamine is a constituent monosaccharide of hyaluronic acid, in hyaluronic acid newly synthesized in the cells after addition of the test substance, [^3H] glucosamine is incorporated. Therefore, hyaluronic acid in the collected culture supernatant was separated according to molecular weight using HPLC, and fractions were collected every 0.5 minutes using a fraction collector. To each of the collected fractions, 0.5 mL of a scintillation fluid was added and mixed. Thereafter, the radioactivity (dpm, disintegrations per minute) of each fraction was measured using a scintillation counter, and the radioactivity (the amount of [^3H] glucosamine incorporated into newly produced hyaluronic acid) was evaluated. The HPLC conditions are as follows.
Mobile phase: a solution of 5 mmol/L phosphate buffer solution (pH 6.0) with 0.82% (w/v) NaCl:acetonitrile=2:1 (v:v)
Column: OH pak SB-805 HQ column (Shodex (registered trademark)), column temperature: 35° C.
The hyaluronic acid standard solution was separated by HPLC, and UV absorption at a wavelength of 210 nm was measured. Fraction No. in which the peak top of the hyaluronic acid standard solution of each molecular weight is collected was calculated. As the hyaluronic acid standard solutions, Select-HATM 500 k (average molecular weight: 528,000), Select-HATM 1,000 k (average molecular weight: 1,076,000), and Select-HATM 2,500 k (average molecular weight: 2,420,000) were used.
The same procedure as in Example 1 was performed. Note that the culture supernatant was collected at respective time points (8, 24, 36, 48, and 72 hours) after adding the test substance to the cells.
A control solution, a 0.01% (w/v %) compound 1 solution, and a 0.01% (w/v %) sodium hyaluronate (HA) solution were prepared in the same manner as in Example 1. DF-Na (0.014 μg/mL, 0.14 μg/mL, 1.4 μg/mL, and 14 μg/mL) solutions were prepared by dissolving DF-Na in the control solution. Further, a HA+DF-Na mixed liquid was obtained by dissolving DF-Na (1.4 μg/mL) in the 0.01% (w/v %) sodium hyaluronate (HA) solution.
(§1) The same procedure as in Example 1 was performed.
The same procedure as in Example 1 was performed. Note that a column (OH pak SB-807 HQ column (Shodex (registered trademark)) having higher separability on the high molecular weight side than the HPLC column (OH pak SB-805 HQ column (Shodex (registered trademark)) was used.

[2] = system: synovial cells derived from patients with osteoarthritis (HFLS-OA)
Protocol: The cells derived from three patients with each disease (3 lots) were separately evaluated and the number of cases was set to 3.
After the culture supernatant was collected, the adhered cells were detached from each well. Thereafter, the cell count was measured using a trypan blue solution and a hemacytometer.

[3] = system: Human synovial cells derived from a patient with rheumatism (HFLS-RA); test: Hyaluronidase treatment of culture supernatant, then fractionation and radioactivity measurement; assay type: cell-based; settings: Example 2, 0.01% (w/v)
Protocol: It was verified that the substance whose synthesis was promoted by the action of the compound 1 is hyaluronic acid by confirming the presence or absence of degradation by a hyaluronic acid-degrading enzyme (hyaluronidase).
as §1
The culture supernatant (90 μL) collected after adding the 0.01% HA solution and 10 μL of 100 TRU/mL hyaluronidase (or water for injection) were mixed and reacted overnight at 37° C., thereby performing a hyaluronidase treatment. The culture supernatant (90 μL) collected after adding the 0.01% compound 1 solution and 30 μL of 100 TRU/mL hyaluronidase (or water for injection) were mixed and reacted at 60° C. for 3 hours, thereby performing a hyaluronidase treatment. The hyaluronidase (derived from an actinomycetes) was purchased from Seikagaku Biobusiness Corporation.

HYAL2 mRNA = test: Relative mRNA level (real-time PCR, ΔΔCt) in synovial cells; assay type: cell-based, human; settings: HFLS-OA, 0.1% (w/v), 48 hours, vs control
Protocol: (§2) Compound 1 or sodium hyaluronate (HA) (ARTZ Dispo (registered trademark) (manufactured by Seikagaku Corporation)) was mixed in a solution containing a phosphate buffer solution and an α-MEM concentrated medium. Further, each reagent was added and mixed in the resulting solution so that the final concentrations were as follows: 10% (v/v) fetal bovine serum (hereinafter FBS), 10 ng/mL recombinant human IL-1β/IL-1F2 (hereinafter IL-1β), and 1% (w/v) penicillin/streptomycin. As a result, the following three solutions were prepared as test substances.
(§3) Human synovial cells derived from a patient with osteoarthritis (HFLS-OA, CELL APPLICATIONS, INC.) were subcultured and grown in a 175-cm^2 flask. In the cell culture, Basal medium (containing 10% (v/v) Growth supplement and 1% (w/v) penicillin/streptomycin) (manufactured by Cell Applications, Inc.) was used. Thereafter, the cells were seeded in a 6-well plate at 3.0×10^5 cells/2 mL/well and cultured for about 24 hours until confluence was reached. In the cell culture, α-MEM medium (containing 10% (v/v) FBS and 1% (w/v) penicillin/streptomycin) was used. […]
(§4) The cDNA sample was subjected to real-time PCR using Premix ExTaq (Perfect Real Time) (Takara Bio, Inc.), the Ct values of target genes (HAS1, HAS2, HAS3, HYAL1, HYAL2, and HYAL3) and GAPDH were measured, and relative mRNA levels were calculated by the ΔΔCt method.

HAS2 mRNA = test: as above; assay type: cell-based, human; settings: HFLS-OA, 0.1% (w/v), 48 hours, vs control
Protocol: as §2, §3, §4

[4] = system: model rabbit with antigen-induced arthritis; test: Hyaluronic acid synthesis in the knee joint of a model rabbit with antigen-induced arthritis; assay type: in vivo, Japanese white rabbit
Excerpt: A 0.5% (w/v %) compound 1 solution was obtained by mixing respective solutions of a 1% (w/v) compound 1 solution (phosphate buffer solution), a 10% (w/v) ovalbumin solution (phosphate buffer solution) and [^3H] glucosamine (phosphate buffer solution, 37 MBq/mL) at a ratio of 5:1:4 (v:v:v). In the preparation of a control solution, a phosphate buffer solution was used in place of the compound 1 solution. In the preparation of a sodium hyaluronate (HA) solution, ARTZ Dispo (registered trademark) (manufactured by Seikagaku Corporation) was used in place of the compound 1 solution. Further, a Normal solution not containing ovalbumin (an arthritis-inducing substance) was obtained by mixing respective solutions of a phosphate buffer solution and [^3H] glucosamine (phosphate buffer solution, 37 MBq/mL) at a ratio of 3:2 (v:v). As test substances, the following substances were used.
Ovalbumin (SIGMA) was dissolved and prepared with physiological saline (Otsuka Pharmaceutical Factory, Inc.) at 1% (w/v), and a water-in-oil emulsion was prepared with Freund's complete adjuvant (CAPPEL) at 1:1 (v:v). The emulsion was intradermally administered at a total dose of 1 mL to dozens of sites of the back of a Japanese white rabbit (male, 16 weeks of age, Oriental Yeast Industry Co., Ltd.) under general anesthesia (midazolam, xylazine, and butorphanol at 0.67 mg/kg, 5.3 mg/kg, and 0.67 mg/kg, i.v., respectively) to sensitize the rabbit. On day 12 after sensitization, the rabbit was additionally sensitized by administering the emulsion in the same manner. […]
Since glucosamine is a constituent monosaccharide of hyaluronic acid, in hyaluronic acid newly synthesized in the living body after administration of the test substance, [^3H] glucosamine is incorporated. […] Thereafter, the radioactivity (dpm, disintegrations per minute) of each fraction was measured using a scintillation counter, and the radioactivity (the amount of [^3H] glucosamine incorporated into newly synthesized hyaluronic acid) was evaluated. […]

[5] = system: human synovial cells derived from three patients with osteoarthritis (HFLS-OA); test: Hyaluronic acid synthesis by synovial cells ([3H] glucosamine incorporation, HPLC fractionation by molecular weight); assay type: cell-based; settings: 48 hours, SB-807 HQ column
[6] = 0.5% (w/v), 0.5 mL/joint, 48 hours

Molecule	action of producing high molecular weight hyaluronic acid observed in the compound 1 group ([1]; Example 4, HFLS-RA, 48 hours, 0.01% HA, DF-Na 1.4 μg/mL, or both mixed)	molecular weight peak of hyaluronic acid produced ([1]; Example 4, HFLS-RA, DF-Na 1.4 μg/mL, 48 hours)	action of promoting hyaluronic acid synthesis ([1]; Example 4, HFLS-RA, DF-Na 0.014 to 14 μg/mL, 48 hours)	cell count after cell culture [2]	peak of the high molecular weight radioactive substance after hyaluronidase treatment ([3]; hyaluronidase (+))	production and molecular weight of high molecular weight radioactive substance ([3]; hyaluronidase (−))	expression of HYAL2 mRNA (relative mRNA level) (HYAL2 mRNA)	expression of HAS2 mRNA (relative mRNA level) (HAS2 mRNA)	molecular weight peak of hyaluronic acid synthesized in the knee joint ([4]; 0.5% (w/v) solution, 0.5 mL/joint into the knee joint cavity, joint fluid at 48 hours, normal rabbit peak higher than 2,300,000)	amount of high molecular weight hyaluronic acid produced in the knee joint [4, 6]	production amount of hyaluronic acid in the knee joint [4, 6]	molecular weight peak of hyaluronic acid produced ([5]; Example 5, 0.01% (w/v))	molecular weight of hyaluronic acid produced ([5]; Example 5, 0.1% (w/v))	action of promoting the synthesis of high molecular weight hyaluronic acid ([1]; Example 1, HFLS-RA, 0.1% and 0.01% (w/v), 48 hours)	molecular weight peak of hyaluronic acid produced ([1]; Example 1, HFLS-RA, IL-1β, 0.1% and 0.01% (w/v) test substance, 48 hours, SB-805 HQ column, control peak in the vicinity of 500,000)	molecular weight peak of hyaluronic acid produced ([1]; Example 3, HFLS-RA, 0.1% (w/v), 8, 24, 36, 48 and 72 hours, control in the vicinity of 500,000)	content of hyaluronic acid over time ([1]; Example 3, HFLS-RA, 0.1% (w/v), 8 to 72 hours)	molecular weight peak of hyaluronic acid produced ([1]; Example 4, HFLS-RA, 0.01% (w/v), 48 hours, control in the vicinity of 500,000)	molecular weight peak of hyaluronic acid produced ([1]; Example 5, synovial cells from three patients with rheumatism, 0.01% (w/v), 48 hours, SB-807 HQ column)
O=C(O)Cc1ccccc1Nc1c(Cl)cccc1Cl [DF-Na, diclofenac sodium, reference compound]	not observed	~500,000	not observed at any concentration																
Aminoethanol-diclofenac-introduced sodium hyaluronate [compound 1]				no significant increase or decrease	disappearance of the peak	higher molecular weight than the radioactive substance in the 0.01% HA (hyaluronidase (−)) group	significantly suppresses	significantly promotes	~2,300,000	prominent as compared with the sodium hyaluronate administration group	more prominent in the compound 1 administration group even as compared with the normal group	~2,400,000	more than 2,400,000	has an action of promoting the synthesis of high molecular weight hyaluronic acid	high molecular weight exceeding the molecular weight of hyaluronic acid produced in the HA group	higher molecular weight than that in the HA groups	increases over time	more prominent than in the HA group	~2,400,000
